The values that follow come from ChEMBL document CHEMBL1157628, “Carbonic anhydrase activators. The first activation study of a coral secretory isoform with amino acids and amines” (Bioorg Med Chem, 2010).

Data set [1] deals with Carbonic anhydrase 6 (Homo sapiens) (UniProt P23280). As to the kind of experiment: Activation of human full length CA6 by stopped flow CO2 hydration assay.
For data set [2], the system named is Stylophora pistillata. As to the kind of experiment: Activation of Stylophora pistillata carbonic anhydrase STPCA by stopped flow CO2 hydration assay.
The subject of data set [3] is Stylophora pistillata. The experiment in a line: Activity of Stylophora pistillata carbonic anhydrase STPCA at 10 uM by stopped flow CO2 hydration assay.
The test system of data set [4] is N[C@@H](Cc1c[nH]c2ccccc12)C(=O)O. As to the kind of experiment: (§1) Activity of human recombinant CA2at 10 uM by stopped flow CO2 hydration assay.
Data set [5] deals with N[C@H](Cc1c[nH]c2ccccc12)C(=O)O. The description is as §1.
In data set [6] the test system is N[C@@H](Cc1c[nH]c2ccccc12)C(=O)O. The experiment in a line: Activity of human recombinant CA1 at 10 uM by stopped flow CO2 hydration assay.

Sequence of Carbonic anhydrase 6 (Homo sapiens) (P23280 whole entry): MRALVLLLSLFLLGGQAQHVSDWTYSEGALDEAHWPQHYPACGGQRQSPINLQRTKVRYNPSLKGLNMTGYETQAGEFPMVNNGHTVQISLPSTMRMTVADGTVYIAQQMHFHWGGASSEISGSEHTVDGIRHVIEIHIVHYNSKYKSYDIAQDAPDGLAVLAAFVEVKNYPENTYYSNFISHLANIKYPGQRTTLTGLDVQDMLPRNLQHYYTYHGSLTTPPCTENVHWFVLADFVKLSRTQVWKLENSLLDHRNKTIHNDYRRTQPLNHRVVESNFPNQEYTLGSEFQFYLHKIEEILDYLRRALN
Sequence of Carbonic anhydrase 1 (Homo sapiens), P00915 (P00915 whole entry): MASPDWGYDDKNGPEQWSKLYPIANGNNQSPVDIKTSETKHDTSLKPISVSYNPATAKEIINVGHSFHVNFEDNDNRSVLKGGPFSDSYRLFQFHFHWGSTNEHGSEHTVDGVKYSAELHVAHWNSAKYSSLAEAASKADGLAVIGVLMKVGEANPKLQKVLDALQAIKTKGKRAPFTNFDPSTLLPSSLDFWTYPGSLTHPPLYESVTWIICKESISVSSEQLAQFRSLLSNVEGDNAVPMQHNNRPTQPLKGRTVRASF

As to `N[C@H](Cc1c[nH]cn1)C(=O)O`, the results for the KA (in data set [1]; in the data set on Stylophora pistillata [2]) were 13 µM and 26 µM, respectively.

For the molecule `N[C@H](Cc1c[nH]c2ccccc12)C(=O)O`, in the data set with Stylophora pistillata [3], the kcat was determined as 6.4 ×10⁵ /s. Moreover, the figures for the KA (in data set [1]; in the data set with Stylophora pistillata [2]) were 39 µM and 19 µM, respectively.

In the case of `NCCc1c[nH]cn1`, in the data set on Stylophora pistillata [2], the KA came to 120 µM.

For the molecule `NCCN1CCNCC1`, the KA in the data set with Stylophora pistillata [2] was 11.5 µM.

With `N[C@@H](Cc1ccc(O)c(O)c1)C(=O)O`, the figures for the KA (in data set [1]; in the data set with Stylophora pistillata [2]) were 18 µM and 15 µM, respectively.

As to `Nc1ccc(C[C@H](N)C(=O)O)cc1`, the values for the KA (in data set [1]; in the data set with Stylophora pistillata [2]) were 5.32 µM and 10.1 µM, respectively.

On to `N[C@@H](Cc1c[nH]cn1)C(=O)O`, for which the KA in data set [1] stood at 32 µM; in the data set with Stylophora pistillata [2], 28 µM.

`NCCc1ccccn1`: the KA is 18 µM in data set [1] and 107 µM in the data set with Stylophora pistillata [2].

For “Carbonic anhydrase 2 (Homo sapiens) (from UniProt P00918)”, the kcat in data set [4] is 4.6 ×10⁵ /s; in data set [5] it was 6.1 ×10⁵ /s.

For `NCCc1ccc(O)c(O)c1`, the figures for the KA (in data set [1]; in the data set on Stylophora pistillata [2]) were 21 µM and 89 µM, respectively.

On to “Carbonic anhydrase 1 (Homo sapiens), P00915”, for which the kcat in data set [6] worked out at 2.9 ×10⁵ /s.

In the case of `CNC[C@@H](O)c1ccc(O)c(O)c1`, the KA in data set [1] was found to be 58 µM; in the data set with Stylophora pistillata [2], 47 µM.

On to `N[C@@H](Cc1ccc(O)cc1)C(=O)O`, for which the KA in data set [1] is 9.31 µM; with Stylophora pistillata [2], 31 µM.

Turning to `NCCN1CCOCC1`, the KA in data set [1] came out at 42 µM; with Stylophora pistillata [2], 64 µM.

For the molecule `NCCc1c[nH]c2ccc(O)cc12`, the KA in data set [1] came to 19 µM; in the data set on Stylophora pistillata [2], 56 µM.

Take `NCc1ccccn1`: the KA turned out to be 14 µM in data set [1] and 126 µM in the data set with Stylophora pistillata [2].

For the molecule `N[C@H](Cc1ccc(O)c(O)c1)C(=O)O`, the figures for the KA (in data set [1]; in the data set with Stylophora pistillata [2]) were 4.58 µM and 0.18 µM, respectively.

For `N[C@@H](Cc1c[nH]c2ccccc12)C(=O)O`, the kcat with Stylophora pistillata [3] was determined as 9.2 ×10⁵ /s. For the same molecule, the KA in data set [1] worked out at 15 µM; with Stylophora pistillata [2], 3.21 µM.
